Here are results for six compounds from ChEMBL document CHEMBL1125472, “5-lipoxygenase: properties, pharmacology, and the quinolinyl(bridged)aryl class of inhibitors” (J Med Chem, 1992).

For assay [1], the system named is RBL-1. The experiment in a line: The compound was tested for inhibitory activity against 5-HETE synthesis in rat RBL-1. The format is functional, cell-based.
Assay [2] relates to RBL-1. Description: The compound was tested for inhibitory activity in rat RBL-1 cells. The format is functional, cell-based.
Assay [3] deals with T1, Polyunsaturated fatty acid 5-lipoxygenase (Rattus norvegicus, UniProt P12527).
T1 sequence (P12527 whole entry): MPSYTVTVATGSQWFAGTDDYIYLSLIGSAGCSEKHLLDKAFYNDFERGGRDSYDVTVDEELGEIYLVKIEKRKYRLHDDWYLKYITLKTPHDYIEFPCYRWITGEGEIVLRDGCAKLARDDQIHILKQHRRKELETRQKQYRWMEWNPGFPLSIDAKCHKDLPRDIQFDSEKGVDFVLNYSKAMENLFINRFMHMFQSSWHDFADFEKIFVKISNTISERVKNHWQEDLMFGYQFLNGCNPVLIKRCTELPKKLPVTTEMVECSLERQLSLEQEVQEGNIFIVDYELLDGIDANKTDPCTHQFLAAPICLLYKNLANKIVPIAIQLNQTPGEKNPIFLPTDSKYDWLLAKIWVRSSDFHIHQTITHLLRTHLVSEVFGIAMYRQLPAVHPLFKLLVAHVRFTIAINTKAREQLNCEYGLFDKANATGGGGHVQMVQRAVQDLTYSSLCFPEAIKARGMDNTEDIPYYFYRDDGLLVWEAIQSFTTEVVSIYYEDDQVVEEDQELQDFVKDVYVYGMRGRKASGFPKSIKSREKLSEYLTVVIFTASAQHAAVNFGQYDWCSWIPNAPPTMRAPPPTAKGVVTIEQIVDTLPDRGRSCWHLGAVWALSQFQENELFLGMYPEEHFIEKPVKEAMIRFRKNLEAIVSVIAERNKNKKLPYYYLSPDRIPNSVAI
Description: The compound was tested for inhibitory activity against 5-lipoxygenase in rat RBL-1. The format is cell-based.

The target of assay [4] is T1, Polyunsaturated fatty acid 5-lipoxygenase. The experiment in a line: The compound was tested for inhibitory activity against 5-lipoxygenase using rat polymorphonuclear leukocytes[PMNS].
The target of the next assay is T2, Cyclooxygenase (Rattus norvegicus, UniProt P35355+Q63921).
T2 sequence (P35355 whole entry): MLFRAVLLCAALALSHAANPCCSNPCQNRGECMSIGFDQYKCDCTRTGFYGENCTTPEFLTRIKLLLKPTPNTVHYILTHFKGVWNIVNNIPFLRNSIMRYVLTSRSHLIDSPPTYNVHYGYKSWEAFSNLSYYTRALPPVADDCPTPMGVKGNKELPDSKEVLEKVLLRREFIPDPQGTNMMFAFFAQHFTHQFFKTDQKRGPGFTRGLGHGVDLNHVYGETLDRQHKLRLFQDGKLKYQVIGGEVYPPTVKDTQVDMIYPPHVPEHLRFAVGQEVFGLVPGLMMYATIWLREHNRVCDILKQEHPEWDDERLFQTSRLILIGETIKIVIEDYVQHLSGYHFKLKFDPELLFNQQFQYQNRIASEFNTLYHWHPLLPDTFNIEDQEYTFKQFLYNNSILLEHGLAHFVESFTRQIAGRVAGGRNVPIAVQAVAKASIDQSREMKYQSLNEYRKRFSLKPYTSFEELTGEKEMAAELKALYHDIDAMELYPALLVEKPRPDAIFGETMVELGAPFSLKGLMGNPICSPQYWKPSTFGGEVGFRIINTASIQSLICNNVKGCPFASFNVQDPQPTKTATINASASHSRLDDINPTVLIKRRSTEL
T2 sequence (Q63921 whole entry): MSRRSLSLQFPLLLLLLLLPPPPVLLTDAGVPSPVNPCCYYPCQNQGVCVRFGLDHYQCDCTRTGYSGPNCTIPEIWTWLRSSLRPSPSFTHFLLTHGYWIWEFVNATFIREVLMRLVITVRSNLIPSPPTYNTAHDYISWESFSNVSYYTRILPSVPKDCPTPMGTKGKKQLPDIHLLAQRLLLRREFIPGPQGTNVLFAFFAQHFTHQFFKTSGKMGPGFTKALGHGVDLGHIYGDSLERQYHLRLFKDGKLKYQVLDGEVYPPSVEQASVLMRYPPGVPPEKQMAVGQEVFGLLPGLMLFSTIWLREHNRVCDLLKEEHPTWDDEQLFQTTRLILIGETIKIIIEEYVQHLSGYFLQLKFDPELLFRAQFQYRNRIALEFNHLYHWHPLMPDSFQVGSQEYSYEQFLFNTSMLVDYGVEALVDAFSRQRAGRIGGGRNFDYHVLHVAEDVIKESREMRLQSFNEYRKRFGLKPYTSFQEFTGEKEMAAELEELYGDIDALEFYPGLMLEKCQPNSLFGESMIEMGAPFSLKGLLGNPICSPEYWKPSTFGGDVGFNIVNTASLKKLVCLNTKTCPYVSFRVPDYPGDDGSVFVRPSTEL
Description: The compound was tested for inhibitory activity against Prostaglandin G/H synthase using rat polymorphonuclear leukocytes[PMNS].

The test system of a further assay is Cavia porcellus. The experiment in a line: The compound was tested for inhibition of LTD4-induced bronchoconstriction in guinea pig at 50 mg/kg (in vivo). The format is functional. The settings on record: read-out: Inhibition.
The target of assay [5] is T3, Prostaglandin G/H synthase (cyclooxygenase) (Mus musculus, UniProt P22437+Q05769).
T3 sequence (P22437 whole entry): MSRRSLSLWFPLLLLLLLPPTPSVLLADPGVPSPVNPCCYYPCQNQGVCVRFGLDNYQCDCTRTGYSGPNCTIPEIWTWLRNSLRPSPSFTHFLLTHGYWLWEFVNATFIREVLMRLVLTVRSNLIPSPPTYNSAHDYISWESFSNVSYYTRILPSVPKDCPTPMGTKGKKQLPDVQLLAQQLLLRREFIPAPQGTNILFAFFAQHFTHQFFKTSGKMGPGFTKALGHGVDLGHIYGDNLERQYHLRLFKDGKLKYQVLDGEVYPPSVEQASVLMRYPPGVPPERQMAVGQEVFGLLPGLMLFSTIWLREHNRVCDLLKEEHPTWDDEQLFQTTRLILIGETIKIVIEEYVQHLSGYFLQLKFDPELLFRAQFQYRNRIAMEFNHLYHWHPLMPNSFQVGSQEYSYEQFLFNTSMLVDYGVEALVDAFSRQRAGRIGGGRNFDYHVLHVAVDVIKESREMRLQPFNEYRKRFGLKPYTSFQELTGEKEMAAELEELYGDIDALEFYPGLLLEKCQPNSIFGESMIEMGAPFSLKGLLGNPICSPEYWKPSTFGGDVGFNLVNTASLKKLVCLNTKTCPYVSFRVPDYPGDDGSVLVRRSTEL
T3 sequence (Q05769 whole entry): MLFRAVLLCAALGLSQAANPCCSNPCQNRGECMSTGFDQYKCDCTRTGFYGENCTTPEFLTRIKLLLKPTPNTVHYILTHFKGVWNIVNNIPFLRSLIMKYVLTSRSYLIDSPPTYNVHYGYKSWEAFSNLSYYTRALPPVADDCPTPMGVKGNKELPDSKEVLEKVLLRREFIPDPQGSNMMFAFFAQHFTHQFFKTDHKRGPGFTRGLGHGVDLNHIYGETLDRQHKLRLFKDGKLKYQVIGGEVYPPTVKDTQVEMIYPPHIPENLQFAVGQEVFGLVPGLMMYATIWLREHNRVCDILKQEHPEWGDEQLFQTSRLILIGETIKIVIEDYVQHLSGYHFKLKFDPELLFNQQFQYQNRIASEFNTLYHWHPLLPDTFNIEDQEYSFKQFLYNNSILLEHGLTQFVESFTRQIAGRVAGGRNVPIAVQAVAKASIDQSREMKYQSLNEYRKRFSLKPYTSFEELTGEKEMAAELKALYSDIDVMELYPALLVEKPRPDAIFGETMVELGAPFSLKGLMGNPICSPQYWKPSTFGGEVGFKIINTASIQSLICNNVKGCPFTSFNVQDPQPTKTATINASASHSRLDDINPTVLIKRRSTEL
Description: The compound was tested for inhibitory activity against Prostaglandin G/H synthase in mouse macrophage. The format is protein assay.

Assay [6] deals with T4, Polyunsaturated fatty acid 5-lipoxygenase (Rattus norvegicus) (UniProt P12527).
T4 sequence (whole entry): T1 sequence (P12527 whole entry)
Description: The compound was tested for inhibition of isolated 5-Lipoxygenase.

The species entered for assay [7] is Mus musculus. Description: The compound was tested for inhibition of thromboxane B2 synthesis. The format is functional, organism-based.
Assay [8] is filed under the species Mus musculus. Description: The compound was tested for inhibition of prostaglandin E2[PGE2] synthesis. The format is functional, organism-based.
In assay [9] the test system is RBL-2H3. The experiment in a line: The compound was tested for inhibition LTC4 synthesis. It is filed as functional, Rattus norvegicus.
For assay [10], the system named is RBL-2H3. Description: The compound was tested for inhibition of translocation in SAR in RBL-2H3 cells. The format is functional, Rattus norvegicus.
For assay [11], the species on record is Mus musculus. Description: The compound was tested for inhibitory activity against LTC4 synthesis in mouse peritoneal macrophages. The format is functional.

For `CC1=C(C)C(=O)C(Cc2cccnc2)=C(C)C1=O`, in the assay with RBL-1 [1], half-maximal inhibition (IC50) required 0.062 µM.
`C[C@H](OCC(=O)O)[C@@H](C)Sc1cc(C(C)(C)C)c(O)c(C(C)(C)C)c1` showed an IC50 with RBL-1 [2] of 3.7 µM.
In assay [3], `CCN1C(=S)N(c2ccc(N3CCN(c4ccc(O)cc4)CC3)cc2)C(=O)C1(C)C` displayed an IC50 of 0.5 µM.
Take `Oc1cccc(OCc2ccc3ccccc3n2)c1`: the IC50 in assay [4] was 6.07 µM; against Cyclooxygenase, above 100 µM. Also, the inhibition in vivo at 50 mg/kg in the assay on Cavia porcellus came out at 82%.
Turning to `Cc1c(CC(=O)O)c2cc(OCc3ccc4ccccc4n3)ccc2n1Cc1ccc(Cl)cc1`, the IC50 in assay [5] was 0.004 µM.
With `COC(=O)CCC(=O)N(O)c1cccc(OCc2ccc3ccccc3n2)c1`, the Inhibition was determined as 1530 nM in assay [6], 780 nM in the assay with RBL-2H3 [9] and 750 nM with RBL-2H3 [10]. The values for the half-maximal inhibitory concentration (IC50) in the assay filed under Mus musculus [7], in the assay filed under Mus musculus [8] and in the assay filed under Mus musculus [11] were 4.52 µM, 7.2 µM and 0.45 µM, respectively.
